The values below come from US11028075B2, “Therapeutic compounds and methods of use thereof” (GENENTECH, INC., priority 2018, dated 2021).

Structures can show the parent of a compound that is named as a salt.

The target in assay [1] is T1, hNav1.7 (Homo sapiens (Human), UniProt Q15858). Briefly: Tritiated compound binding to membranes from cells heterologously expressing hNav1.7 and the β1 subunit (Nav1.7 LBA). The following applies: competitive binding vs [3H]compound, membranes with hNav1.7 and β1 subunit; read-out: Nav1.7 LBA EVO IC50. As for the experimental part: Example 93A. Tritiated Compound Binding to Membranes Isolated from Cells that Heterologously Express hNav1.7 and the β1 Subunit
Preparation of membranes containing recombinantly expressed sodium channels: Frozen recombinant cell pellets are thawed on ice and diluted to 4 times the cell pellet weight with ice cold 50 mM Tris HCl, pH 7.4 buffer. The cell suspensions are homogenized on ice using a motorized glass dounce homogeniser. Homogenates are further diluted 8.4 times with ice cold 50 mM Tris HCl, pH 7.4 buffer and then centrifuged at 200×g at 4° C. for 15 minutes. The supernatants are collected and centrifuged at 10000×g at 4° C. for 50 min. The pellets are then re-suspended in 100 mM NaCl, 20 mM Tris HCl, pH 7.4 buffer containing 1% v/v protease inhibitors (Calbiochem) and re-homogenized on ice. The homogenized membranes are then processed through a syringe equipped with a 26 gauge needle. Protein concentrations arer determined by Bradford Assay and the membranes are stored at −80° C.
Saturation experiments. A competitive NaV1.7 inhibitor having a methyl group is tritiated. Three tritiums are incorporated in place of methyl hydrogens to generate [^3H]compound. Binding of this radioligand is performed in 5 mL borosilicate glass test tubes at room temperature. Binding is initiated by adding membranes to increasing concentrations of [^3H]compound in 100 mM NaCl, 20 mM Tris HCl, pH 7.4 buffer containing 0.01% w/v bovine serum albumin (BSA) for 18 h. Non-specific binding is determined in the presence of 1 μM unlabeled compound. After 18 h, the reactants are filtered through GF/C glass fiber filters presoaked in 0.5% w/v polyethylene imine. Filters are washed with 15 mL ice cold 100 mM NaCl, 20 mM Tris HCl, pH7.4 buffer containing 0.25% BSA to separate bound from free ligand. [^3H]compound bound to filters is quantified by liquid scintillation counting.
Binding reactions are performed in 96-well polypropylene plates at room temperature for 18 h. In 360 μL, membranes are incubated with […] [^3H]compound and increasing concentrations of Test Compound. Non-specific binding is defined in the presence of 1 μM unlabeled compound. Reactions are transferred and filtered through 96-well glass fiber/C filter plates presoaked with 0.5% polyethylene imine. The filtered reactions are washed 5 times with 200 μL ice cold buffer containing 0.25% BSA. Bound radioactivity is determined by liquid scintillation counting.
Data Analysis: For saturation experiments, non-specific binding is subtracted from total binding to provide specific binding and these values are recalculated in terms of pmol ligand bound per mg protein. Saturation curves are constructed and dissociation constants are calculated using the single site ligand binding model: Beq=(Bmax*X)/(X+Kd), where Beq is the amount of ligand bound at equilibrium, Bmax is the maximum receptor density, Kd is the dissociation constant for the ligand, and X is the free ligand concentration. For competition studies percent inhibition is determined and IC50 values are calculated using a 4 parameter logistic model (% inhibition=(A+((B−A)/(1+((x/C)^D)))) using XLfit, where A and B are the maximal and minimum inhibition respectively, C is the IC50 concentration and D is the (Hill) slope.
Example 93B. Tritiated Compound Binding to Membranes Isolated from Cells that Heterologous Express hNav1.7 and the β1 Subunit
Following the procedure described in Example 93A, and making modifications as required to: centrifuge supernatants at 100000×g instead of 10000×g; re-suspend pellets in a buffer containing 0.01% BSA in addition to 100 mM NaCl, 20 mM Tris HCl, pH 7.4 buffer, and 1% v/v proteasome inhibitors; and storing membranes at −80° C. in single use aliquots instead of pooled. […]
Target sequence in this assay (Q15858 whole entry, looked up): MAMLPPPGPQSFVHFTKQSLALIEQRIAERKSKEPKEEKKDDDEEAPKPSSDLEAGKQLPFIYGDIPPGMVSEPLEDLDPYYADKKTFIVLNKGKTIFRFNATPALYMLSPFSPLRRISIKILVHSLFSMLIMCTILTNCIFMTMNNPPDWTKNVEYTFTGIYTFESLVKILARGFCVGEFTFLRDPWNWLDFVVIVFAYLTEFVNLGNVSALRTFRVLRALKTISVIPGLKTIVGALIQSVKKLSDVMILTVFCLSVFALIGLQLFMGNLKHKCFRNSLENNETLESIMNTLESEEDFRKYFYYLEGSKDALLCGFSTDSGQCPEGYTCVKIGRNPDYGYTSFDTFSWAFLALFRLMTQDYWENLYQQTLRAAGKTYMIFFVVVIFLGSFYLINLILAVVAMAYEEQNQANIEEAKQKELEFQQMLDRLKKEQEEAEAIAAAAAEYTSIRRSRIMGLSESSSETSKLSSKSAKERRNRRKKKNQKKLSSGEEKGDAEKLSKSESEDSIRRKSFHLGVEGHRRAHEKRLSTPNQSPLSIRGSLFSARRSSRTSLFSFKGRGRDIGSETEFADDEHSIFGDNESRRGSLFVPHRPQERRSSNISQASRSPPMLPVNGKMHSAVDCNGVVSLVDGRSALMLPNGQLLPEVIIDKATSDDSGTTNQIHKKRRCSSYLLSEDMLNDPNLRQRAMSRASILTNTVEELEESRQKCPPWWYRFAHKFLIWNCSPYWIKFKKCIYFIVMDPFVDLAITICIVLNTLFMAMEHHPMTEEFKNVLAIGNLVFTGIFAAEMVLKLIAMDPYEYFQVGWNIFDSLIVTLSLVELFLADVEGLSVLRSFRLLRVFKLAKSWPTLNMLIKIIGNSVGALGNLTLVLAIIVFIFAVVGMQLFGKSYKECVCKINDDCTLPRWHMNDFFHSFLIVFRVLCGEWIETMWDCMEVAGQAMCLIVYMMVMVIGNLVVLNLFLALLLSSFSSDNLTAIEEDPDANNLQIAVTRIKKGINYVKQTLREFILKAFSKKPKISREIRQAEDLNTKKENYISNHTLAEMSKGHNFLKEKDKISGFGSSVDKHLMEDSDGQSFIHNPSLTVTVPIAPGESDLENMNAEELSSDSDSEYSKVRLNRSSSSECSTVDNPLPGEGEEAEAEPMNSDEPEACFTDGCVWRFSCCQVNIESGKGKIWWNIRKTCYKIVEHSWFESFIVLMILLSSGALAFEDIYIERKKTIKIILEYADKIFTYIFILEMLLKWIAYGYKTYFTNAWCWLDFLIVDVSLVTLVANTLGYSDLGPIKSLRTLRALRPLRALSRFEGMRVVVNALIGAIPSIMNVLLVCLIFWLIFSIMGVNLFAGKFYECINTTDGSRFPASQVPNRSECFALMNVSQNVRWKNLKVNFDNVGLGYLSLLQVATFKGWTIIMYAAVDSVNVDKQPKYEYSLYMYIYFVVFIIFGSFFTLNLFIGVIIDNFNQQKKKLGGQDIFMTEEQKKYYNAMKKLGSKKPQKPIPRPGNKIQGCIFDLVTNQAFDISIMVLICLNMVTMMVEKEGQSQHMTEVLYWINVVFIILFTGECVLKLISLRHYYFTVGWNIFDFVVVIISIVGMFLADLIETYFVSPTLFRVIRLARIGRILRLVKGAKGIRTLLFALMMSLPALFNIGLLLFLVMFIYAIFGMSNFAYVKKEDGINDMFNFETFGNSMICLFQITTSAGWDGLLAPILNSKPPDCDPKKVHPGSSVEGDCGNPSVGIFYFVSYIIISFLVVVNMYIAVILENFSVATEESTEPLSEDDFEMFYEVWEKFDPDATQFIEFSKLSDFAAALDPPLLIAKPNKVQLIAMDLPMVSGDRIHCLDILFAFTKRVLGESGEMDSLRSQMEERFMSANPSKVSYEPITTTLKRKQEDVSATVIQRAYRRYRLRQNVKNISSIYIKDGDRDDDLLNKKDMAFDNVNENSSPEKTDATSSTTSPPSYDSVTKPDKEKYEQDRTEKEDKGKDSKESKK
Target sequence in this assay (Q07699 whole entry partner, looked up): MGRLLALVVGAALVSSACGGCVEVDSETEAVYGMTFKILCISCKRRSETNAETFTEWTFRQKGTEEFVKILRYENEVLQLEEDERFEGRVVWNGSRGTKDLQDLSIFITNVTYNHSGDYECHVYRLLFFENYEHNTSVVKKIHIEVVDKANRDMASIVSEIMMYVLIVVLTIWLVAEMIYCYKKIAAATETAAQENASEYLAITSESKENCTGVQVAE

In assay [2] the target is T1, hNav1.7. The assay is described as follows: Electrophysiological assay (EP), voltage clamp on Syncropatch 384PE, CHO cells stably expressing Nav1.7. The class given is cell-based. As to conditions: holding potential −50 mV, 7.5 min compound incubation, read-out: EP_SP hNav1.7 EVO IC50. The text has this: Example 93C. Electrophysiological Assay (EP) (In Vitro Assay)
Patch voltage clamp electrophysiology allows for the direct measurement and quantification of block of voltage-gated sodium channels (NaV's), and allows the determination of the time- and voltage-dependence of block which has been interpreted as differential binding to the resting, open, and inactivated states of the sodium channel (Hille, B., Journal of General Physiology (1977), 69: 497-515).
The following voltage clamp electrophysiology studies are performed on representative compounds using cells heterologously expressing Nav1.7 or Nav1.5 channels. cDNAsfor Nav1.7 (NM_002977) and Nav1.5 (AC137587) are stably expressed in Chinese Hamstr Ovary (CHO) cells and CHL (Chinese Hamster Lung) cells respectively. Sodium currents are measured in the whole-cell configuration using Syncropatch 384PE (Nanlon Technologies, Germany). 1NPC®-384 chips with custom medium resistance and single hole mode are used. Internal solution consists of (in mM): […], 10 […], 20 EGTA, and 10 Hepes (pH adjusted to 7.2); and external solution contains (in mM): 60 NMDG, 80 NaCl, 4 KCl, 1 MgCl2, 2 CaCl2, 2 D-Glucose monohydrate, 10 Hepes (pH adjusted to 7.4 with NaOH).
After system flushing, testing compounds are dissolved in external solution containing 0.1% Pluronic F-127. The chip is moved into the measuring head and the instrument primes the chip with external and internal solutions. 10 μl cells are added to the chip from a cell hotel, and a negative pressure of −50 mBar is applied to form a seal. Following treatment with seal enhancer solution and wash-off with external solution, negative pressure of −250 mbar is applied for 1 second to achieve the whole-cell configuration, followed by three washing steps in external solution. 20 μl of compounds is added to 40 μl in each well (1:3 dilution of compounds), and after mixing, 20 μl is removed so the volume is retained at 40 μl. After approximately 13 minutes recordings, 20 μl/well of 2 uM TTX, or 333 uM Tetracaine (for Nav1.5) is added to achieve full block.
For voltage protocol, an holding potential of −50 mV is applied during the whole experiment. A depolarizing step is applied to −10 mV for 10 ms, followed by a hyperpolarization step to −150 mV for 20 ms to allow channel recovery from inactivation. A second depolarizing step is applied from −150 mV to −10 mV for 10 ms, where currents are measured to derive blocking effects of compounds. Inhibition is determined based on 7.5 min of compound incubation.
Target sequence in this assay (Q15858 other isoform, or with tags, fused parts or gaps): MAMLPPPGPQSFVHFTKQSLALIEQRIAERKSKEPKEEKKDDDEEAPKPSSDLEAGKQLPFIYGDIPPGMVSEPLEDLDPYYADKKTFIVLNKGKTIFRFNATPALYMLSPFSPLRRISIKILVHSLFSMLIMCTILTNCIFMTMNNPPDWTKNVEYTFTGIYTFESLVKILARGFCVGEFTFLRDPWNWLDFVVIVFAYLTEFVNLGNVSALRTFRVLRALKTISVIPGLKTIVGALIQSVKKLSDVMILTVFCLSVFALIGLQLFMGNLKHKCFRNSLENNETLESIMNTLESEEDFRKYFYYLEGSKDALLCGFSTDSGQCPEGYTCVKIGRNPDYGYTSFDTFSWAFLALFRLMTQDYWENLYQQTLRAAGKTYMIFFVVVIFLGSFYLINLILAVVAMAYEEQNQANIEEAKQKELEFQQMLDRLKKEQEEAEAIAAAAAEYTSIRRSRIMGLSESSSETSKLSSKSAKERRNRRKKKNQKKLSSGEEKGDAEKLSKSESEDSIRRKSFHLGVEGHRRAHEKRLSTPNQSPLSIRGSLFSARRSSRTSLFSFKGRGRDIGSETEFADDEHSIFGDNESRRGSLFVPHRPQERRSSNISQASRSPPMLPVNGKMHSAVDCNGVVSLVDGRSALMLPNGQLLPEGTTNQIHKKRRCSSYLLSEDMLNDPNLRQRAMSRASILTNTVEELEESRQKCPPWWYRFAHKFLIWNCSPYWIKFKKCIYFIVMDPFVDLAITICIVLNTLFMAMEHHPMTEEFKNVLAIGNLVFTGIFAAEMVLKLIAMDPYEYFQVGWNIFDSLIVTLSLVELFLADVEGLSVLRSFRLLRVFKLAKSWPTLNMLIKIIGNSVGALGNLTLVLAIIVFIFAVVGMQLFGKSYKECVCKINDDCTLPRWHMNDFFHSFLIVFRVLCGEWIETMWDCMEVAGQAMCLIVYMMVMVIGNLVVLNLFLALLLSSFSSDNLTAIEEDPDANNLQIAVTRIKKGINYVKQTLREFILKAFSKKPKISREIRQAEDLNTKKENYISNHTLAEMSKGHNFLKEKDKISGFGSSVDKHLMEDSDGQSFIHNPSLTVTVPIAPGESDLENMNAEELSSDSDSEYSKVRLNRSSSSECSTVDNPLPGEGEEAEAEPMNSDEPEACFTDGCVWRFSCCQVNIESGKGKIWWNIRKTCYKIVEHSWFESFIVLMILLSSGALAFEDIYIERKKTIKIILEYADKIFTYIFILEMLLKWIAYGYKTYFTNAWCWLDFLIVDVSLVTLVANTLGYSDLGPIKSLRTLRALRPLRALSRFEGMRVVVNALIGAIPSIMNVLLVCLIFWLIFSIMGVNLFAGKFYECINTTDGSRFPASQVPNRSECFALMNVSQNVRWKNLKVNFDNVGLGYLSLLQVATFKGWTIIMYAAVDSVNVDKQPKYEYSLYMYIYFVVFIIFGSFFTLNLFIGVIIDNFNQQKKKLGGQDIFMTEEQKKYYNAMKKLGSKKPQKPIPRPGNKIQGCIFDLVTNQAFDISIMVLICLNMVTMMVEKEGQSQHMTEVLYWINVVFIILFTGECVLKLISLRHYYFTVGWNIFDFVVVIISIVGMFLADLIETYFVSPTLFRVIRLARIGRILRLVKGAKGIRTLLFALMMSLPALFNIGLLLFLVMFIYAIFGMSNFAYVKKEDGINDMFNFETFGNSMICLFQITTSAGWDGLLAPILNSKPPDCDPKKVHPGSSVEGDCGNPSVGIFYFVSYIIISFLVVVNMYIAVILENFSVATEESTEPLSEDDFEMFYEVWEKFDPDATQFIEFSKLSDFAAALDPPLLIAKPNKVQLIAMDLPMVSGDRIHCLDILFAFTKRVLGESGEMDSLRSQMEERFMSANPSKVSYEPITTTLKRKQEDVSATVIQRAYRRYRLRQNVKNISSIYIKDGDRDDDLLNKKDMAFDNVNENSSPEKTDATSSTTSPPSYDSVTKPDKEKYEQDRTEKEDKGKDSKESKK
Background: In patch-clamp work, channel activity is measured electrically.

With `CN(C)[C@H]1C[C@@H](c2ccc(Cl)c(Cl)c2)CC[C@@H]1Oc1cc(F)c(S(=O)(=O)Nc2ccncn2)cc1Cl` [Example 67, 5-chloro-4-(((1S,2S,4S)-4-(3,4-dichlorophenyl)-2-(dimethylamino)cyclohexyl)oxy)-2-fluoro-N-(pyrimidin-4-yl)benzenesulfonamide formate], the results for the IC50 at hNav1.7 [1] and on hNav1.7 [2] were 3.83 nM and 0.325 nM, respectively.

With `CN(C)[C@H]1C[C@@H](c2ccc(F)c(C(F)(F)F)c2)CC[C@@H]1Nc1cc(F)c(S(=O)(=O)Nc2ccncn2)cc1Cl` [Example 6, 5-chloro-4-(((1S,2S,4S)-2-(dimethylamino)-4-(4-fluoro-3-(trifluoromethyl)phenyl)-cyclohexyl)amino)-2-fluoro-N-(pyrimidin-4-yl)benzenesulfonamide], the IC50 (in general, the concentration at which inhibition is half-maximal) at hNav1.7 [1] stood at 0.791 nM; at hNav1.7 [2] it was 0.765 nM.

With `CN(C)[C@H]1C[C@@H](c2cc(Cl)cc(C(F)(F)F)c2)CC[C@@H]1Nc1cc(F)c(S(=O)(=O)Nc2ccncn2)cc1Cl` [Example 24, 5-chloro-4-(((1S,2S,4S)-4-(3-chloro-5-(trifluoromethyl)phenyl)-2-(dimethylamino)cyclohexyl)-amino)-2-fluoro-N-(pyrimidin-4-yl)benzenesulfonamide], the figures for the IC50 at hNav1.7 [1] and at hNav1.7 [2] were 0.583 nM and 0.383 nM, respectively.

As to `O=S(=O)(Nc1ccncn1)c1cc(F)c(N[C@H]2CC[C@H](c3ccc(F)c(C(F)(F)F)c3)C[C@@H]2N2CCCC2)cc1F` [Example 84, 2,5-difluoro-4-(((1S,2S,4S)-4-(4-fluoro-3-(trifluoromethyl)phenyl)-2-(pyrrolidin-1-yl)cyclohexyl)-amino)-N-(pyrimidin-4-yl)benzenesulfonamide], the results for the IC50 on hNav1.7 [1] and at hNav1.7 [2] were 0.877 nM and 0.52 nM, respectively.

Consider `CN(C)[C@H]1C[C@@H](c2cccc(C(F)(F)F)c2)CC[C@@H]1Oc1cc(F)c(S(=O)(=O)Nc2ccncn2)cc1Br` [Example 56, 5-Bromo-4-(((1S,2S,4S)-2-(dimethylamino)-4-(3-(trifluoromethyl)phenyl)cyclohexyl)oxy)-2-fluoro-N-(pyrimidin-4-yl)benzenesulfonamide], for which the concentration for half-maximal inhibition (IC50) at hNav1.7 [1] turned out to be 1.92 nM; on hNav1.7 [2], 0.528 nM.

Consider `O=CO.[2H]C([2H])([2H])N([C@H]1C[C@@H](c2cccc(C(F)(F)F)c2)CC[C@@H]1Nc1cc(F)c(S(=O)(=O)Nc2ccncn2)cc1Cl)C([2H])([2H])[2H]` [Example 9, 4-[[(1S,2S,4S)-2-[bis(trideuteriomethyl)amino]-4-[3-(trifluoromethyl)phenyl]-cyclohexyl]amino]-5-chloro-2-fluoro-N-pyrimidin-4-yl-benzenesulfonamide formate], for which the figures for the IC50 on hNav1.7 [1] and at hNav1.7 [2] were 0.681 nM and 0.694 nM, respectively.

As for `O=S(=O)(Nc1ccncn1)c1cc(F)c(N[C@H]2CC[C@H](c3cc(C(F)(F)F)ccc3F)C[C@@H]2N2CCCC2)cc1F` [Example 50, 2,5-difluoro-4-(((1S,2S,4S)-4-(2-fluoro-5-(trifluoromethyl)phenyl)-2-(pyrrolidin-1-yl)cyclohexyl)amino)-N-(pyrimidin-4-yl)benzenesulfonamide], the figures for the IC50 at hNav1.7 [1] and at hNav1.7 [2] were 3.88 nM and 1.21 nM, respectively.

As to `CN(C)[C@H]1C[C@@H](c2cccc(Cl)c2Cl)CC[C@@H]1Oc1cc(F)c(S(=O)(=O)Nc2ccncn2)cc1Cl` [Example 75, 5-chloro-4-(((1S,2S,4S)-4-(2,3-dichlorophenyl)-2-(dimethylamino)cyclohexyl)oxy)-2-fluoro-N-(pyrimidin-4-yl)benzenesulfonamide], the results for the IC50 on hNav1.7 [1] and at hNav1.7 [2] were 50.6 nM and 2.62 nM, respectively.

As to `CN(C)[C@H]1C[C@@H](c2cccc(C(F)(F)F)c2)CC[C@@H]1Oc1ccc(S(=O)(=O)Nc2ccncn2)cc1F` [Example 79, 4-(((1S,2S,4S)-2-(Dimethylamino)-4-(3-(trifluoromethyl)phenyl)cyclohexyl)oxy)-3-fluoro-N-(pyrimidin-4-yl)benzenesulfonamide], the IC50 at hNav1.7 [1] is 223 nM; on hNav1.7 [2], 18 nM.

In the case of `CN(C)[C@H]1C[C@@H](c2cccc(-c3ccnn3C)c2)CC[C@@H]1Nc1cc(F)c(S(=O)(=O)Nc2ccncn2)cc1Cl` [Example 21, 5-Chloro-4-(((1S,2S,4S)-2-(dimethylamino)-4-(3-(1-methyl-1H-pyrazol-5-yl)phenyl)-cyclohexyl)amino)-2-fluoro-N-(pyrimidin-4-yl)benzenesulfonamide], the values for the IC50 on hNav1.7 [1] and on hNav1.7 [2] were 12.9 nM and 8.03 nM, respectively.

Regarding `O=S(=O)(Nc1ccncn1)c1cc(F)c(N[C@H]2CC[C@H](c3cc(F)cc(C(F)(F)F)c3)C[C@@H]2N2CCCC2)cc1F` [Example 85, 2,5-difluoro-4-(((1S,2S,4S)-4-(3-fluoro-5-(trifluoromethyl)phenyl)-2-(pyrrolidin-1-yl)cyclohexyl)-amino)-N-(pyrimidin-4-yl)benzenesulfonamide formate], the figures for the IC50 on hNav1.7 [1] and on hNav1.7 [2] were 2.24 nM and 0.494 nM, respectively.

`CN(C)[C@H]1C[C@@H](c2cccc(C(F)(F)F)c2Cl)CC[C@@H]1Oc1cc(F)c(S(=O)(=O)Nc2ccncn2)cc1Cl` [Example 92, 5-chloro-4-(((1S,2S,4S)-4-(2-chloro-3-(trifluoromethyl)phenyl)-2-(dimethylamino)-cyclohexyl)oxy)-2-fluoro-N-(pyrimidin-4-yl)benzenesulfonamide]: the figures for the IC50 at hNav1.7 [1] and on hNav1.7 [2] were 55.7 nM and 3.99 nM, respectively.

On to `CN1CC[C@H](C(=O)N(C)[C@H]2C[C@@H](c3cccc(C(F)(F)F)c3)CC[C@@H]2Nc2cc(F)c(S(=O)(=O)Nc3ccncn3)cc2Cl)C1` [Example 33, (S)—N-((1S,2S,5S)-2-((2-chloro-5-fluoro-4-(N-(pyrimidin-4-yl)sulfamoyl)phenyl)amino)-5-(3-(trifluoromethyl)phenyl)cyclohexyl)-N,1-dimethylpyrrolidine-3-carboxamide], for which the IC50 turned out to be 2.45 nM at hNav1.7 [1] and 0.629 nM at hNav1.7 [2].
